Measurements from patent publication US20230303506A1, “COMPOSITIONS AND METHODS FOR THE PREVENTION AND/OR TREATMENT OF MITOCHONDRIAL DISEASE, INCLUDING FRIEDREICH'S ATAXIA” (Stealth BioTherapeutics Inc., priority 2019, published 2023).
Entries after “also recorded” stand apart in the source; their conditions may differ.

Assays:
[1] = test system: HepG2 human hepatocarcinoma cells; assay: Rotenone ATP Assay (Complex I Assay); assay type: cell-based; conditions: for activity in both the BSO Assay and the Rotenone ATP Assay, in words: BSO Assay and Rotenone ATP Assay taken together; for Complex I by-pass activity / restoring ATP production, in words: summary of rotenone assays; for Rotenone ATP Assay EC50, nM: Table 7
Method: This assay has been adapted from Haefeli R H, Erb M, Gemperli A C, Robay D, Courdier Fruh I, et al. (2011) NQO1-Dependent Redox Cycling of Idebenone: Effects on Cellular Redox Potential and Energy Levels. PLoS ONE 6(3): e17963. HepG2 human hepatocarcinoma cells were co-incubated with the electron transport chain Complex I toxin rotenone +/− compounds of interest and the corresponding effect on ATP synthesis was measured with a bioluminescent substrate.
In brief, HepG2 cells were plated at 25,000 cells per well in low glucose (1 gram/Liter) DMEM medium+10% fetal calf serum and incubated for 24 hours. The following day, the media was decanted and subsequently replaced with glucose free/serum free DMEM which has been supplemented with 50 micromolar rotenone and compound of interest. Serial dilutions of compound were prepared in 3× dilutions beginning at 25 micromolar. The cells were incubated for 60 minutes in a humidified tissue culture incubator. Following incubation, ATP levels were quantified via bioluminescent assay (Promega […] Glo Assay kit) and readings were captured on a standard microplate reader.
ATP bioluminescence is plotted versus the log of compound of interest and data were used to generate EC50 values. Curve fitting was performed using a sigmoidal dose response curve fit function (GraphPad Prism software).
Robustness of curve fit was assessed as a quality control measure, with an R squared value of at least 0.80 being required for a successful curve fit. Compounds of interest showing an increase in ATP bioluminescence relative to vehicle control were verified in an independent biological replicate of n=3 technical replicates per dose.
This assay is a direct measure of the ability of compounds of interest to restore ATP production under conditions of inhibition of Complex I of the mitochondrial electron transport chain. As the majority of ATP produced via the electron transport chain is thought to derive from Complex I activity, significant impairment in Complex I function has dire biological consequences. Of note, Complex I mutations are thought to drive pathophysiology in multiple mitochondrial diseases, including Leigh syndrome and Leber's Hereditary Optic Neuropathy (LHON), while diminished Complex I activity and the resultant attenuation of ATP production has been shown in neurodegenerative diseases, including Friedreich's Ataxia, Parkinson's Disease and Huntington's Disease.

HepG2 cells = assay: Rotenone Oxygraph Assay (high-resolution respirometry of intact HepG2 cells); assay type: cell-based, human; conditions: for Rotenone Oxygraph Assay % Increase: Table 7; for Rotenone Oxygraph Assay % Increase / Percent increase in ATP (Rotenone Oxygraph Assay), Mean: 1 μM rotenone, compound 10 μM; for Percent increase in ATP (Rotenone Oxygraph Assay), Mean: Table 4, intact HepG2 cells, change in respiration rate
Method: The Oxygraph-2 k (O2k, OROBOROS INSTRUMENTS, Austria) was used for measurements of respiration of intact cells. The respirometry was performed in Dulbecco's Modified Eagle Medium (DMEM) high glucose without supplements. All experiments were performed at 37° C.
HepG2 cells (ATCC collection code HB-8065™) were cultured in 10 cm^2 culture dishes in DMEM high glucose medium supplemented with 10% fetal bovine serum (FBS) and 100 units/mL penicillin and 100 μg/mL streptomycin until approximately 90% confluence was reached. Immediately prior to performing the respirometric assay, the cells were washed with media without FBS, trypsinized and resuspended in DMEM high glucose without FBS.
The final concentration of intact cells in the O2k-chamber was 0.5·10^6/mL. After stabilization of respiration, the Complex I inhibitor, rotenone, at 1 μM final concentration was added to inhibit electron flux via Complex I. Then, compound to be tested was added at 10 μM final concentration, and the change in respiration rate of intact cells was monitored.

[2] = test system: frataxin deficient fibroblasts (GM03665); assay: cells; assay type: cell-based
Nrf-2 = Nrf-2 Activation Assay (Nrf-2 Assay); assay type: cell-based, human; conditions: for activation of Nrf-2 pathway, in words: FIG. 7; for Nrf-2 Assay: Table 7, 1 μM compound, 24 hours, qPCR of Nrf-2 responsive genes
Method: This assay was developed internally and was designed to determine if the novel test compounds disclosed herein active Nrf-2 and thereby promote resolution of inflammation by the mechanism believed to be responsible for the activity of omaveloxolone.
Briefly, GM03665 Friedreich Ataxia patient fibroblasts were grown in 12 Well Plates (TC Cell+F) (Sarstedt, Numbrecht Germany), at a density of […] in DMEM/F12 (Gibco, ThermoFisher Scientific, Waltham, MA, USA) cell media supplemented with 10% FBS and 1% Pen/Strep. Cells were left to rest overnight at 37° C. in a humidified atmosphere with 5% CO2 to allow attachment of the cells to the culture plate. Before continuing assay visual inspection of each well was done by light microscopy to detect any possible bacterial and fungal contamination. […] After incubation, cell media was removed and total RNA from the cells was isolated using E.Z.N.A.® Total RNA Kit I (Omega Bio-tek, Norcross, Georgia, USA) spin columns, and first-strand cDNA synthesis was carried out using a High Capacity cDNA Reverse Transcription Kit (Applied Biosystems™, Foster City, CA) following the manufacturer's instructions. qPCR analysis of gene expression was performed by mixing SYBR® Green Master Mix (Applied Biosystems™) with synthesized cDNA and forward and reverse primers. […] (60 cycles), and 95° C. for 60 seconds, followed by melt curve analysis at 72-95° C., 0.3° C./sec. The relative expression levels for each gene were calculated with the ΔΔCt method and normalized to the expression of REEP5 and SNRPD3 genes.

lipoxygenase-15 enzyme = lipoxygenase-15 enzyme (Glycine max (Soybean) (Glycine hispida), UniProt P08170); assay: Lipoxygenase-15 Assay (LO-15 Assay); conditions: reduced form of compounds
GM03665 cells = assay: RSL3 Toxicity Assay (RSL3 Assay); assay type: cell-based, human
Method: In brief, GM03665 cells (Coriell Institute) were seeded in 96-well plates (Sarstedt) in DMEM cell culture media containing 10% Fetal Bovine serum and 1% Penicillin-Streptomycin (Pen-Strep) antibiotic mix at the amount of 2×10^4/mL (100 μL or 2×10^3 cells per well). Cells were left to rest overnight at 37° C. in a humidified atmosphere with 5% CO2 to allow attachment of the cells to the culture plate. Test compounds were prepared as DMSO stocks (10 mM) and were serially diluted in cell culture media to obtain 2× working solutions. Cell media was discarded and replaced by 50 μL of test compound solutions or cell media with vehicle for control wells. Within 15 minutes, 2× working solution (4 μM) of 1S,3R-RSL3 (CAS #1219810-16-8, Sigma-Aldrich) (diluted from 5 mM DMSO stock in cell culture media) was added. Final reaction volume was 100 μL and final DMSO concentration in reaction was kept below 0.2% (v/v) and equal in all wells. Final RSL3 concentration was 2 μM and test compound final concentrations in reaction were up to 1000 nM. After 24 hours of incubation cell viability was assessed by MTT test. MTT (Sigma-Aldrich) solution 1 mg/mL in 1×PBS (pH=7,4) was prepared 1 hour before the assay and filtered through Filtropur S 0.2 filters (Sarstedt). Cell media with test compounds was discarded and 100 μL of MTT solution was added to cells. The plates were incubated for 2 hours at +37° C. Thereafter, the MTT solution was removed and 100 μL of isopropanol was added to dissolve sediment. Absorption at 570 and 650 nm was measured using Hidex Sense microplate reader.

[3] = HepG2, 50 micromolar rotenone, 60 minutes

Structure (SMILES)	activity in both the BSO Assay and the Rotenone ATP Assay, in words [1]	Rotenone Oxygraph Assay % Increase (HepG2 cells)	activity in BSO assay (protection from BSO induced cell death), in words [2]	Complex I by-pass activity / restoring ATP production, in words [1]	activation of Nrf-2 pathway, in words (Nrf-2)	Nrf-2 Assay (Nrf-2)	activity in LO-15 assay, in words (lipoxygenase-15 enzyme)	activity in RSL3 assay (protection from RSL3 induced ferroptosis), in words (GM03665 cells)	activity in Rotenone Oxygraph Assay, in words (HepG2 cells)	Percent increase in ATP (Rotenone Oxygraph Assay), Mean (HepG2 cells)	Rotenone ATP Assay EC50, nM [1, 3]	RSL3 Assay EC50, Mean (GM03665 cells; Table 3, 2 μM RSL3, 24 hours, MTT, mean of at least three measurements, unit printed in Table 7)	RSL3 Assay EC50, nM (GM03665 cells; Table 7, 2 μM RSL3, 24 hours, MTT)	EC50 ([2]; Homo sapiens, Fibroblast, FA patient fibroblasts pretreated with compound, 10 mM BSO, 48 hrs, MTT, read-out: EC50 (nM) BSO Assay) [nM]	EC50 ([1]; Homo sapiens, 1 h, HepG2, 50 micromolar rotenone, 60 minutes, ATP bioluminescence, read-out: EC50 Rotenone ATP Assay) [nM]
Cc1c(C)c2c(c(C)c1O)CC[C@@](C)(CCC=C(F)F)O2 [Compound 67, (R)-2-(4,4-difluorobut-3-en-1-yl)-2,5,7,8-tetramethylchroman-6-ol]	possess both activities	–	–	–	–	–	–	–	–	–	–	–	–	–	–
COC1=C(OC)C(=O)C(CCCCCCCCCCO)=C(C)C1=O [Idebenone]	do not possess both activities; also recorded: none of them are active in both assays	70.2 +/− 15%	very weakly active/borderline inactive	ability to restore ATP production when Complex I is inhibited; also recorded: active	–	–	–	–	–	–	–	–	–	–	–
CC1=C(C)C(=O)C(CC[C@](C)(O)CC/C=C(\C)CC/C=C(\C)CCC=C2COC2)=C(C)C1=O [Compound E, 2-((R,6E,10E)-3-hydroxy-3,7,11-trimethyl-14-(oxetan-3-ylidene)tetradeca-6,10-dien-1-yl)-3,5,6-trimethylcyclohexa-2,5-diene-1,4-dione]	possess both activities	37.9 +/− 10.7%	able to prevent ferroptotic cell death; also recorded: active	active	do not activate	Inactive	outside of the range of the assay	active; also recorded: able to prevent ferroptotic cell death	–	–	–	–	–	–	–
CC1=C(C)C(=O)C(CC[C@@](C)(O)CC/C=C(\C)CCC=C(F)F)=C(C)C1=O [Compound L, (S,E)-2-(11,11-difluoro-3-hydroxy-3,7-dimethylundeca-6,10-dien-1-yl)-3,5,6-trimethylcyclohexa-2,5-diene-1,4-dione]	possess both activities	58.6 +/− 15.5%	able to prevent ferroptotic cell death; also recorded: active	active	do not activate	Inactive	active; also recorded: effective inhibitors	active; also recorded: able to prevent ferroptotic cell death	–	–	–	–	–	–	–
CC1=C(C)C(=O)C(CC[C@](C)(O)CCCCCCCCC(F)(F)F)=C(C)C1=O [Compound N, (R)-2,3,5-trimethyl-6-(12,12,12-trifluoro-3-hydroxy-3-methyldodecyl)cyclo-hexa-2,5-diene-1,4-dione]	possess both activities	44.8 +/− 10.3%	able to prevent ferroptotic cell death; also recorded: active	active	do not activate	Inactive	active; also recorded: effective inhibitors	active; also recorded: able to prevent ferroptotic cell death	–	–	–	–	–	–	–
CC1(C)CC[C@]2(NC(=O)C(C)(F)F)CC[C@]3(C)[C@H](C(=O)C=C4[C@@]5(C)C=C(C#N)C(=O)C(C)(C)[C@@H]5CC[C@]43C)[C@@H]2C1 [Omaveloxolone, reference compound]	do not possess both activities; also recorded: none of them are active in both assays	Inactive	ability to circumvent BSO induced cell death; also recorded: displayed anti-ferroptotic activity; also recorded: active	not	positive and does	Active	–	–	inactive	Inactive	Inactive	Inactive	Inactive	–	–
CC(C)=CCC/C(C)=C/CC/C(C)=C/CC[C@@](C)(O)CCC1=C(C)C(=O)C(C)=C(C)C1=O (stereo in doubt) [Vatiquinone, reference compound]	do not possess both activities; also recorded: none of them are active in both assays	Inactive	ability to circumvent BSO induced cell death; also recorded: active	not	–	–	–	active	inactive	Inactive	Inactive	–	–	< 100	> 3000
